Experiments:
Type in all cases: in vivo
[1] = test system: green foxtail (Setaria viridis); assay: Test A postemergence application, visual injury rating 0-100; conditions: 10 days
In short: (§1)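 Compound in a non-phytotoxic, surfactant-containing solvent is applied either as a directed soil spray before seedlings emerge or onto emerged plants 2-10 cm tall; pots hold a loam-sand blend. Plants grow 10 days under greenhouse conditions and are rated by eye against untreated controls (0 no effect, 100 complete control).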

[2] = test system: horseweed (Erigeron canadensis); assay: as above; conditions: 10 days
In short: as §1

[3] = test system: barnyardgrass (Echinochloa crus-galli); assay: as above; conditions: 10 days
In short: as §1

[4] = test system: blackgrass (Alopecurus myosuroides); assay: as above; conditions: 10 days
In short: as §1

[5] = test system: corn (Zea mays); assay: as above; conditions: 10 days
In short: as §1

[6] = test system: kochia (Bassia scoparia); assay: as above; conditions: 10 days
In short: as §1

[7] = test system: soybean (Glycine max); assay: as above; conditions: 10 days
In short: as §1

[8] = test system: wheat (Triticum aestivum); assay: as above; conditions: 10 days
In short: as §1

[9] = test system: oat, wild (wild oat, Avena fatua); assay: as above; conditions: 10 days
In short: as §1

[10] = test system: ragweed (common ragweed, Ambrosia artemisiifolia); assay: as above; conditions: 10 days
In short: as §1

[11] = test system: ryegrass, Italian (italian ryegrass, Lolium multiflorum); assay: as above; conditions: 10 days
In short: as §1

[12] = test system: palmer (palmer amaranth, palmer pigweed, Amaranthus palmeri); assay: as above; conditions: 10 days
In short: as §1

[13] = test system: galium (catchweed bedstraw, Galium aparine); assay: as above; conditions: 10 days
In short: as §1

[14] = test system: green foxtail (Setaria viridis); assay: Test A preemergence soil spray, visual injury rating 0-100; conditions: 10 days, 0 = no effect, 100 = complete control
In short: as §1

[15] = test system: barnyardgrass (Echinochloa crus-galli); assay: as above; conditions: 10 days, 0 = no effect, 100 = complete control
In short: as §1

[16] = test system: blackgrass (Alopecurus myosuroides); assay: as above; conditions: 10 days, 0 = no effect, 100 = complete control
In short: as §1

[17] = test system: corn (Zea mays); assay: as above; conditions: 10 days, 0 = no effect, 100 = complete control
In short: as §1

[18] = test system: kochia (Bassia scoparia); assay: as above; conditions: 10 days, 0 = no effect, 100 = complete control
In short: as §1

[19] = test system: soybean (Glycine max); assay: as above; conditions: 10 days, 0 = no effect, 100 = complete control
In short: as §1

[20] = test system: wheat (Triticum aestivum); assay: as above; conditions: 10 days, 0 = no effect, 100 = complete control
In short: as §1

[21] = test system: oat, wild (wild oat, Avena fatua); assay: as above; conditions: 10 days, 0 = no effect, 100 = complete control
In short: as §1

[22] = test system: ragweed (common ragweed, Ambrosia artemisiifolia); assay: as above; conditions: 10 days, 0 = no effect, 100 = complete control
In short: as §1

[23] = test system: ryegrass, Italian (italian ryegrass, Lolium multiflorum); assay: as above; conditions: 10 days, 0 = no effect, 100 = complete control
In short: as §1

[24] = test system: palmer (palmer amaranth, palmer pigweed, Amaranthus palmeri); assay: as above; conditions: 10 days, 0 = no effect, 100 = complete control
In short: as §1

[25] = test system: rice (Oryza sativa); assay: Test B flooded paddy test, visual plant response rating 0-100; conditions: 250 g ai/ha, Flood, applied to paddy water, evaluated after 13 days
In short: (§2)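 Compounds applied to standing paddy water (3 cm above soil, maintained for the test duration) on 2-leaf-stage plants; visual rating vs controls at 13 days, greenhouse.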

[26] = test system: ducksalad (Heteranthera limosa); assay: as above; conditions: 250 g ai/ha, Flood, applied to paddy water, evaluated after 13 days
In short: as §2

[27] = test system: barnyardgrass (Echinochloa crusgalli); assay: as above; conditions: 250 g ai/ha, Flood, applied to paddy water, evaluated after 13 days
In short: as §2

[28] = test system: sedge, umbrella (small-flower umbrella sedge, Cyperus difformis); assay: as above; conditions: 250 g ai/ha, Flood, applied to paddy water, evaluated after 13 days
In short: as §2

[29] = 31 g ai/ha, postemergence, 0 = no effect, 100 = complete control
[30] = Postemergence, 125 g ai/ha, 0 is no effect, 100 is complete control

For CC1(C(=O)NC2C=CC(C(=O)O)C2)CN(c2cc(Cl)cc(Cl)c2)C(=O)O1 (stereo not shown) [Compound 62], the “Foxtail, Green plant response rating (0-100)” value [1, 29] was 90, the “Foxtail, Green plant response rating (0 to 100 scale)” value [1, 30] was 90 and the “Horseweed plant response rating (0-100)” value [2, 29] was 50. The “Horseweed plant response rating (0 to 100 scale)” value [2, 30] was 70, the “Barnyardgrass plant response rating (0-100)” value [3, 29] was 100 and the “Barnyardgrass plant response rating (0 to 100 scale)” value [3, 30] was 100. The “Blackgrass plant response rating (0-100)” value [4, 29] was 90, the “Blackgrass plant response rating (0 to 100 scale)” value [4, 30] was 100 and the “Corn plant response rating (0-100)” value [5, 29] was 100. For the same compound, the “Corn plant response rating (0 to 100 scale)” value [5, 30] was 100, the “Kochia plant response rating (0-100)” value [6, 29] was 70 and the “Kochia plant response rating (0 to 100 scale)” value [6, 30] was 80. For the same compound, the “Soybean plant response rating (0-100)” value [7, 29] was 80, the “Soybean plant response rating (0 to 100 scale)” value [7, 30] was 90 and the “Wheat plant response rating (0-100)” value [8, 29] was 90. The “Wheat plant response rating (0 to 100 scale)” value [8, 30] was 90, the “Oat, Wild plant response rating (0-100)” value [9, 29] was 90 and the “Oat, Wild plant response rating (0 to 100 scale)” value [9, 30] was 90. The “Ragweed plant response rating (0-100)” value [10, 29] was 40, the “Ragweed plant response rating (0 to 100 scale)” value [10, 30] was 90 and the “Ryegrass, Italian plant response rating (0-100)” value [11, 29] was 90. The “Ryegrass, Italian plant response rating (0 to 100 scale)” value [11, 30] was 100, the “Amaranth, Palmer plant response rating (0-100)” value [12, 29] was 90 and the “Amaranth, Palmer / Pigweed, Palmer plant response rating (0 to 100 scale)” value [12, 30] was 90. For the same compound, the “Galium plant response rating (0-100)” value [13, 29] was 80, the “Galium plant response rating (0 to 100 scale)” value [13, 30] was 80 and the “Foxtail, Green plant response rating (0-100)” value ([14]; 31 g ai/ha) was 80. For the same compound, the “Foxtail, Green plant response rating (0 to 100 scale)” value ([14]; 125 g ai/ha) was 90, the “Barnyardgrass plant response rating (0-100)” value ([15]; 31 g ai/ha) was 80 and the “Barnyardgrass plant response rating (0 to 100 scale)” value ([15]; 125 g ai/ha) was 100. For the same compound, the “Blackgrass plant response rating (0-100)” value ([16]; 31 g ai/ha) was 30, the “Blackgrass plant response rating (0 to 100 scale)” value ([16]; 125 g ai/ha) was 70 and the “Corn plant response rating (0-100)” value ([17]; 31 g ai/ha) was 30. For the same compound, the “Corn plant response rating (0 to 100 scale)” value ([17]; 125 g ai/ha) was 80, the “Kochia plant response rating (0-100)” value ([18]; 31 g ai/ha) was 30 and the “Kochia plant response rating (0 to 100 scale)” value ([18]; 125 g ai/ha) was 90. The “Soybean plant response rating (0-100)” value ([19]; 31 g ai/ha) was 0, the “Soybean plant response rating (0 to 100 scale)” value ([19]; 125 g ai/ha) was 60 and the “Wheat plant response rating (0-100)” value ([20]; 31 g ai/ha) was 80. The “Wheat plant response rating (0 to 100 scale)” value ([20]; 125 g ai/ha) was 90, the “Oat, Wild plant response rating (0-100)” value ([21]; 31 g ai/ha) was 40 and the “Oat, Wild plant response rating (0 to 100 scale)” value ([21]; 125 g ai/ha) was 70. The “Ragweed plant response rating (0-100)” value ([22]; 31 g ai/ha) was 30, the “Ragweed plant response rating (0 to 100 scale)” value ([22]; 125 g ai/ha) was 20 and the “Ryegrass, Italian plant response rating (0-100)” value ([23]; 31 g ai/ha) was 60. The “Ryegrass, Italian plant response rating (0 to 100 scale)” value ([23]; 125 g ai/ha) was 80, the “Amaranth, Palmer plant response rating (0-100)” value ([24]; 31 g ai/ha) was 90 and the “Amaranth, Palmer plant response rating (0 to 100 scale)” value ([24]; 125 g ai/ha) was 100. For the same compound, the “Plant response rating, Rice (0 to 100 scale, 0 is no effect and 100 is complete control)” value [25] was 15, the “Plant response rating, Ducksalad (0 to 100 scale, 0 is no effect and 100 is complete control)” value [26] was 90 and the “Plant response rating, Barnyardgrass (0 to 100 scale, 0 is no effect and 100 is complete control)” value [27] was 50. For the same compound, the “Plant response rating, Sedge, Umbrella (0 to 100 scale, 0 is no effect and 100 is complete control)” value [28] was 98.
